Experimental data taken from patent US20080009418A1, “Selective Inhibitors” (Alchemia LTD., priority 2004, published 2008).

Experiments:
[1] = biological target: T1, Human opioid (ORL1) (Homo sapiens, UniProt P41146); assay: Radioligand binding, human opioid ORL1 membranes, FlashPlate, [125I]-Nociceptin; settings: compound at 10 μM; for A10 radioligand binding inhibition: human ORL1 membranes
T1 construct: purchased Perkin Elmer Biosignal
How it was run: (§1)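 Cloned human receptor membranes were coated onto FlashPlate wells and incubated with radioligand and compound (added from a 0.5 mM DMSO daughter plate) for 1 hour at room temperature in the dark. Scintillation counting gave percent inhibition, with DMSO defining total and reference ligand defining non-specific binding.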

[2] = biological target: T2, Human κ-Opioid (KOP) (Homo sapiens, UniProt P41145); assay: Radioligand binding, human κ-opioid (KOP) membranes, filtration, [3H]-Diprenorphine; settings: compound at 10 μM; for A2 radioligand binding inhibition: human κ-opioid (KOP) membranes
T2 construct: purchased Perkin Elmer Biosignal
T2 sequence (P41145 whole entry): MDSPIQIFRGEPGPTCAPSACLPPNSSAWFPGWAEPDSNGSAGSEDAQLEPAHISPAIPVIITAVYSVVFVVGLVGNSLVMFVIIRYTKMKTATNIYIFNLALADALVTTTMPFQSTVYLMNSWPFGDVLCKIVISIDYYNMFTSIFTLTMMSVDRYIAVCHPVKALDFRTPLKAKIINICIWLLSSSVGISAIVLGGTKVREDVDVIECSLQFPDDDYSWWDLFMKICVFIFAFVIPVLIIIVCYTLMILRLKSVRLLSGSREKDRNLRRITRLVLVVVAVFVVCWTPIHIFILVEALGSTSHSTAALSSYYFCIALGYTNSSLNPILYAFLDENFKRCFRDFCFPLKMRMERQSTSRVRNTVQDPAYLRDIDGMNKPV
How it was run: (§2)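 Membranes from cloned human receptors were incubated with compound and radioligand for 1 hour at room temperature. Bound ligand was collected on 0.3% PEI-soaked filters, washed with cold 50 mM Tris-HCl pH 7.4, and counted by scintillation. Percent inhibition was computed against DMSO totals and reference-ligand nonspecific wells.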

[3] = biological target: T3, Human melanin-concentrating hormone (MCH1) (Homo sapiens, UniProt Q99705); assay: Radioligand binding, human melanin-concentrating hormone MCH1 membranes, FlashPlate, [125I]-S36057; settings: compound at 10 μM; for A6 radioligand binding inhibition: human MCH1 membranes
T3 construct: purchased Perkin Elmer Biosignal
T3 sequence (Q99705 whole entry): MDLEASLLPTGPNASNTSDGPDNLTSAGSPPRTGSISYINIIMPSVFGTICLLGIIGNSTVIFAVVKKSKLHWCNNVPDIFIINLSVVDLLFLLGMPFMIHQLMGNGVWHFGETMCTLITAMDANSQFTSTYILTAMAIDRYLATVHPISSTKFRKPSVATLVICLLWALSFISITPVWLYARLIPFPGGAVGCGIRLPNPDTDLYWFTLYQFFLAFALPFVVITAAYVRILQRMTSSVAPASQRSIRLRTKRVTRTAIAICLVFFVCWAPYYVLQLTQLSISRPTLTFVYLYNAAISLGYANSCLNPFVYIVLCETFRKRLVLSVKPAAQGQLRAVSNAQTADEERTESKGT
How it was run: as §1

[4] = biological target: T4, Human μ-opioid (MOP) (Homo sapiens, UniProt P35372); assay: Radioligand binding, human μ-opioid (MOP) membranes, FlashPlate, [3H]-Naloxone; settings: compound at 10 μM; for A7 radioligand binding inhibition: human μ-opioid (MOP) membranes
T4 construct: purchased Perkin Elmer Biosignal
T4 sequence (P35372 whole entry): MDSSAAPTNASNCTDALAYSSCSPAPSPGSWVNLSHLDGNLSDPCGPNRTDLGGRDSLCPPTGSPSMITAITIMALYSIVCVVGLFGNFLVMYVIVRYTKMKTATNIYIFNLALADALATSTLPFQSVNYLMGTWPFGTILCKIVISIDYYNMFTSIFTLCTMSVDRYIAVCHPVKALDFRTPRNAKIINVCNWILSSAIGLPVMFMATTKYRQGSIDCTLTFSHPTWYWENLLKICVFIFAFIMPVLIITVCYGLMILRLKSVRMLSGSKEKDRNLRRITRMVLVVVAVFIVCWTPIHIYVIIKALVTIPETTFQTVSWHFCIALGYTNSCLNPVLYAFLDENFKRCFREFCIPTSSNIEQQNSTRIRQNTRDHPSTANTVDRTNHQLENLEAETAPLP
How it was run: as §1

[5] = biological target: T5, Human neurokinin (NK1) (Homo sapiens, UniProt P25103); assay: Radioligand binding, human neurokinin NK1 membranes, filtration, [125I]-Substance P; settings: compound at 10 μM; for A8 radioligand binding inhibition: human neurokinin NK1 membranes
T5 construct: purchased Perkin Elmer Biosignal
T5 sequence (P25103 whole entry): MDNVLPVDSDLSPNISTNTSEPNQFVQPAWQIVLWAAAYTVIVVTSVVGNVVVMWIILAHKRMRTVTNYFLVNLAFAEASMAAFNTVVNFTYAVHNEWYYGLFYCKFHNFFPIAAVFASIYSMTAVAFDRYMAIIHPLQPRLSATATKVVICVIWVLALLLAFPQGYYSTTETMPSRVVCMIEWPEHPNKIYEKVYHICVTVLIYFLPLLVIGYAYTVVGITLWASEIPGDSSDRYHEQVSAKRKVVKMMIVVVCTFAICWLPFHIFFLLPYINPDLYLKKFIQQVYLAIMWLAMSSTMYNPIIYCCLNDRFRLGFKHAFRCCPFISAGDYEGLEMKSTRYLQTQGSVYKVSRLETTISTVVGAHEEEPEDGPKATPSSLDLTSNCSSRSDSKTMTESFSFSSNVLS
How it was run: as §2

[6] = biological target: T6, Human Melanocortin (MC4) (Homo sapiens, UniProt P32245); assay: Radioligand binding, human melanocortin MC4 membranes, FlashPlate, [125I]-NDP-αMSH; settings: compound at 10 μM; for A4 radioligand binding inhibition: human melanocortin MC4 membranes
T6 construct: purchased Perkin Elmer Biosignal
T6 sequence (P32245 whole entry): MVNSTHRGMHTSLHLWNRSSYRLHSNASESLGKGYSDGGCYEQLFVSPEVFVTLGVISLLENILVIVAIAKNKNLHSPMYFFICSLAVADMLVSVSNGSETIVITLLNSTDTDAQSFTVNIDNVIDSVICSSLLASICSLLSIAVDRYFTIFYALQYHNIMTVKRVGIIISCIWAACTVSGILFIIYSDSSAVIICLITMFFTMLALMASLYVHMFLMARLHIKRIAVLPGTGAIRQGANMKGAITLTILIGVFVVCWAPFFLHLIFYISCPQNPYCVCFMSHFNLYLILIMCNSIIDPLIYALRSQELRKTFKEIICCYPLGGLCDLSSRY
How it was run: as §1

[7] = biological target: T7, Mouse urotensin (mUR2) (Mus musculus, UniProt Q8VIH9); assay: Radioligand binding, mouse urotensin mUR2 membranes, FlashPlate, [125I]-Urotensin II; settings: compound at 10 μM; for A11 radioligand binding inhibition: mouse urotensin mUR2 membranes
T7 construct: purchased Perkin Elmer Biosignal
T7 sequence (Q8VIH9 1-385): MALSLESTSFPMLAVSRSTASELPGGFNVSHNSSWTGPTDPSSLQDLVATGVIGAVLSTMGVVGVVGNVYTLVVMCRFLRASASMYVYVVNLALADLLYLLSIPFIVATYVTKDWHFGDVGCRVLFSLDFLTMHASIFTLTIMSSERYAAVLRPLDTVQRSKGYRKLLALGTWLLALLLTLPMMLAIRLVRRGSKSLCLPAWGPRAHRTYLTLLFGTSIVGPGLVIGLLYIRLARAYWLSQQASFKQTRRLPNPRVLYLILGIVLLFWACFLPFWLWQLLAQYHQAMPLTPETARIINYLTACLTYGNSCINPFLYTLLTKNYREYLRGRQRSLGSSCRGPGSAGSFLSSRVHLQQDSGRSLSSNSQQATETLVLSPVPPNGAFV
How it was run: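 Cloned mouse urotensin (mUR2) receptor membranes from Perkin Elmer Biosignal were immobilized in FlashPlate microplates using a proprietary coating. Each well got 19.5 μl buffer, then 0.5 μl of DMSO, reference ligand, or compound. Adding 5 μl of [125I]-Urotensin II, diluted to 5× final concentration in binding buffer, started binding. Plates were sealed with TopSeal-A and incubated 1 hour at room temperature in the dark. Wells were counted for 30 seconds each on a TopCount after a 60-second delay, and percentage inhibition was calculated.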

[8] = biological target: T8, Human neuropeptide Y (NPY-Y1) (Homo sapiens, UniProt P25929); assay: Radioligand binding, human neuropeptide Y NPY-Y1 membranes, FlashPlate, [125I]-PYY; settings: compound at 10 μM; for A9 radioligand binding inhibition: human NPY-Y1 membranes
T8 construct: purchased Perkin Elmer Biosignal
T8 sequence (P25929 1-384): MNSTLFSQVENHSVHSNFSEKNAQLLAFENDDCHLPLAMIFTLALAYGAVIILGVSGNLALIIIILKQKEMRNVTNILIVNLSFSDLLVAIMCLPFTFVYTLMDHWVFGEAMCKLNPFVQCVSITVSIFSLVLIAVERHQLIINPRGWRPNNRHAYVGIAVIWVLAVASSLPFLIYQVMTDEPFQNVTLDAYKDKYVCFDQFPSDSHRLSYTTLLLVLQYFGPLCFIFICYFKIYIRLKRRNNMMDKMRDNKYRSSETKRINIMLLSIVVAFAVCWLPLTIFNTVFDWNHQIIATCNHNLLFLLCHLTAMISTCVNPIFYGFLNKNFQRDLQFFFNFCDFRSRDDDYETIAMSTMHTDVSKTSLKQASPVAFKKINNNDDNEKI
How it was run: as §1

[9] = biological target: T9, Human melanocortin (MC5) (Homo sapiens, UniProt P33032); assay: Radioligand binding, human melanocortin MC5 membranes, FlashPlate, [125I]-NDP-αMSH; settings: compound at 10 μM; for A5 radioligand binding inhibition: human melanocortin MC5 membranes
T9 construct: purchased Perkin Elmer Biosignal
T9 sequence (P33032 whole entry): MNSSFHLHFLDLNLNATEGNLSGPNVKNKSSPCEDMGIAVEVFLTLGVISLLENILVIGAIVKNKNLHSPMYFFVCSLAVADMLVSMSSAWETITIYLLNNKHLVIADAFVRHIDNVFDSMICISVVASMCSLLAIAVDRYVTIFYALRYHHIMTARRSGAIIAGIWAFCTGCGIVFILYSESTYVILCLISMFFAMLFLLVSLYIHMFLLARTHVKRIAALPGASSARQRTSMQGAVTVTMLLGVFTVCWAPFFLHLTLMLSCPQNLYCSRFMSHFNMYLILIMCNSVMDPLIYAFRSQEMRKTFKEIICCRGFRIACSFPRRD
How it was run: as §1

[10] = biological target: T10, Human δ-opioid (DOP) (Homo sapiens, UniProt P41143); assay: Radioligand binding, human δ-opioid (DOP) membranes, FlashPlate, [3H]-Bremazocine; settings: compound at 10 μM; for A1 radioligand binding inhibition: human δ-opioid (DOP) membranes
T10 construct: purchased Perkin Elmer Biosignal
T10 sequence (P41143 whole entry): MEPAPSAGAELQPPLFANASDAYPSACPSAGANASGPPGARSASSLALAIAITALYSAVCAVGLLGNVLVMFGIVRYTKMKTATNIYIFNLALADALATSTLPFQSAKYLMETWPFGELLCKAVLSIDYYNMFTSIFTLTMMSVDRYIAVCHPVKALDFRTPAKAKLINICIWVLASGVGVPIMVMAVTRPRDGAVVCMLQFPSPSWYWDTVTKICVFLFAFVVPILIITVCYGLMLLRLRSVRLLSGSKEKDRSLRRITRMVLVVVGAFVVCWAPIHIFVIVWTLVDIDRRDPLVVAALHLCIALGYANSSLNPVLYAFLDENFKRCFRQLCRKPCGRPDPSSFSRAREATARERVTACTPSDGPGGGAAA
How it was run: as §1

[11] = biological target: T11, Human Melanocortin (MC3) (Homo sapiens, UniProt P41968); assay: Radioligand binding, human melanocortin MC3 membranes, FlashPlate, [125I]-NDP-αMSH; settings: compound at 10 μM; for A3 radioligand binding inhibition: human melanocortin MC3 membranes
T11 construct: purchased Perkin Elmer Biosignal
T11 sequence (P41968 whole entry): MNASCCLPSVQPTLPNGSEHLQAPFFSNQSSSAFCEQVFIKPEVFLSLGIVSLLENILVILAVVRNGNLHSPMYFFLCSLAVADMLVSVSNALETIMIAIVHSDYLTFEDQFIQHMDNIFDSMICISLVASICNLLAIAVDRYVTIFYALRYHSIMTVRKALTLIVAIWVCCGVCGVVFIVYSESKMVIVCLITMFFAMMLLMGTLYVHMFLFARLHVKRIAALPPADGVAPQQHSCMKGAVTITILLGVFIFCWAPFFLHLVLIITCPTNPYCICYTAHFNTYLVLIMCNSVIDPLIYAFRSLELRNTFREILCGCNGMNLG
How it was run: as §1

T1 sequence (P41146 whole entry): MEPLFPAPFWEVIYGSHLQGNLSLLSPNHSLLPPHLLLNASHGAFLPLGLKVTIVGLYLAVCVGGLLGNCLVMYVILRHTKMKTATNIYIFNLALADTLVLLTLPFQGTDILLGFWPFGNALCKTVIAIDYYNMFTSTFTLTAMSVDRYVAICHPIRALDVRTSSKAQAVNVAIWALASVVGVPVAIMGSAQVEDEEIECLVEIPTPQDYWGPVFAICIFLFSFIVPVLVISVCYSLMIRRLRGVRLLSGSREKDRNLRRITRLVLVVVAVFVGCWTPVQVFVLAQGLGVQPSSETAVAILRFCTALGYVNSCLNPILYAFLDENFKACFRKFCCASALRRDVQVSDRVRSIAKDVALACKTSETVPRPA

| Structure (SMILES) | A10: inhibition of radioligand binding, human opioid (ORL1) ([1]; [125I]-Nociceptin) | A2: inhibition of radioligand binding, human κ-opioid (KOP) ([2]; [3H]-Diprenorphine) | A6: inhibition of radioligand binding, human melanin-concentrating hormone (MCH1) ([3]; [125I]-S36057) | A7: inhibition of radioligand binding, human μ-opioid (MOP) ([4]; [3H]-Naloxone) | A8: inhibition of radioligand binding, human neurokinin (NK1) ([5]; [125I]-Substance P) | A4: inhibition of radioligand binding, human melanocortin (MC4) ([6]; [125I]-NDP-αMSH) | A11: inhibition of radioligand binding, mouse urotensin (mUR2) ([7]; [125I]-Urotensin II) | A9: inhibition of radioligand binding, human neuropeptide Y (NPY-Y1) ([8]; [125I]-PYY) | A5: inhibition of radioligand binding, human melanocortin (MC5) ([9]; [125I]-NDP-αMSH) | A1: inhibition of radioligand binding, human δ-opioid (DOP) ([10]; [3H]-Bremazocine) | A3: inhibition of radioligand binding, human melanocortin (MC3) ([11]; [125I]-NDP-αMSH) | A10 radioligand binding inhibition [1] | A2 radioligand binding inhibition [2] | A6 radioligand binding inhibition [3] | A7 radioligand binding inhibition [4] | A8 radioligand binding inhibition [5] | A4 radioligand binding inhibition [6] | A11 radioligand binding inhibition [7] | A9 radioligand binding inhibition [8] | A5 radioligand binding inhibition [9] | also measured |
| --- | --- | --- | --- | --- | --- | --- | --- | --- | --- | --- | --- | --- | --- | --- | --- | --- | --- | --- | --- | --- | --- |
| CSC1OC(COCc2ccc3ccccc3c2)C(O)C(OCc2ccc3ccccc3c2)C1NC(=O)CCN (stereo not shown) [compound 318] | − (“−” indicates less than 50% inhibition at 10 μM) | − (“−” indicates less than 50% inhibition at 10 μM) | − (“−” indicates less than 50% inhibition at 10 μM) | − (“−” indicates less than 50% inhibition at 10 μM) | + (“+” indicates greater than 50% inhibition at 10 μM) | − (“−” indicates less than 50% inhibition at 10 μM) | − (“−” indicates less than 50% inhibition at 10 μM) | − (“−” indicates less than 50% inhibition at 10 μM) | + (“+” indicates greater than 50% inhibition at 10 μM) | − (“−” indicates less than 50% inhibition at 10 μM) | − (“−” indicates less than 50% inhibition at 10 μM) |  |  |  |  |  |  |  |  |  |  |
| CO[C@H]1[C@H](O)[C@@H](COCc2cccc(O)c2)OC(OCc2ccccc2)[C@@H]1NC(=O)CCCN (stereo partly shown) [compound 153] |  |  |  |  |  |  |  |  |  |  |  |  |  |  |  |  |  |  |  |  | A10 radioligand binding, percentage inhibition ([1]; [125I]-Nociceptin): − (“−” indicates less than 50% inhibition at 10 μM); A2 radioligand binding, percentage inhibition ([2]; [3H]-Diprenorphine): − (“−” indicates less than 50% inhibition at 10 μM); A6 radioligand binding, percentage inhibition ([3]; [125I]-S36057): − (“−” indicates less than 50% inhibition at 10 μM); A7 radioligand binding, percentage inhibition ([4]; [3H]-Naloxone): − (“−” indicates less than 50% inhibition at 10 μM); A8 radioligand binding, percentage inhibition ([5]; [125I]-Substance P): + (“+” indicates greater than 50% inhibition at 10 μM); A4 radioligand binding, percentage inhibition ([6]; [125I]-NDP-αMSH): − (“−” indicates less than 50% inhibition at 10 μM); A11 radioligand binding, percentage inhibition ([7]; [125I]-Urotensin II): − (“−” indicates less than 50% inhibition at 10 μM); A9 radioligand binding, percentage inhibition ([8]; [125I]-PYY): − (“−” indicates less than 50% inhibition at 10 μM); A5 radioligand binding, percentage inhibition ([9]; [125I]-NDP-αMSH): − (“−” indicates less than 50% inhibition at 10 μM); A1 radioligand binding, percentage inhibition ([10]; [3H]-Bremazocine): − (“−” indicates less than 50% inhibition at 10 μM); A3 radioligand binding, percentage inhibition ([11]; [125I]-NDP-αMSH): − (“−” indicates less than 50% inhibition at 10 μM) |
| CO[C@H]1[C@H](O)[C@@H](COCc2ccc(-c3ccccc3)cc2)OC(OCc2ccc(-c3ccccc3)cc2)[C@@H]1NC(=O)CCNC(=N)N (stereo partly shown) [compound 52] |  |  |  |  |  |  |  |  |  |  |  | + (“+” indicates greater than 50% inhibition at 10 μM) | − (“−” indicates less than 50% inhibition at 10 μM) | + (“+” indicates greater than 50% inhibition at 10 μM) | + (“+” indicates greater than 50% inhibition at 10 μM) | + (“+” indicates greater than 50% inhibition at 10 μM) | + (“+” indicates greater than 50% inhibition at 10 μM) | − (“−” indicates less than 50% inhibition at 10 μM) | − (“−” indicates less than 50% inhibition at 10 μM) | + (“+” indicates greater than 50% inhibition at 10 μM) | A1 radioligand binding inhibition [10]: − (“−” indicates less than 50% inhibition at 10 μM); A3 radioligand binding inhibition [11]: + (“+” indicates greater than 50% inhibition at 10 μM) |
| CO[C@H]1[C@H](O)[C@@H](COCc2ccc(Cl)cc2)OC(OCc2ccc(-c3ccccc3)cc2)[C@@H]1NC(=O)CNC(=N)N (stereo partly shown) [compound 62] |  |  |  |  |  |  |  |  |  |  |  | + (“+” indicates greater than 50% inhibition at 10 μM) | − (“−” indicates less than 50% inhibition at 10 μM) | + (“+” indicates greater than 50% inhibition at 10 μM) | − (“−” indicates less than 50% inhibition at 10 μM) | + (“+” indicates greater than 50% inhibition at 10 μM) | + (“+” indicates greater than 50% inhibition at 10 μM) | − (“−” indicates less than 50% inhibition at 10 μM) | − (“−” indicates less than 50% inhibition at 10 μM) | + (“+” indicates greater than 50% inhibition at 10 μM) | A1 radioligand binding inhibition [10]: − (“−” indicates less than 50% inhibition at 10 μM); A3 radioligand binding inhibition [11]: + (“+” indicates greater than 50% inhibition at 10 μM) |
| CSC1OC(COCc2ccc3ccccc3c2)C(O)C(OCc2ccc3ccccc3c2)C1NC(=O)CN (stereo not shown) [compound 316] | − (“−” indicates less than 50% inhibition at 10 μM) | − (“−” indicates less than 50% inhibition at 10 μM) | − (“−” indicates less than 50% inhibition at 10 μM) | − (“−” indicates less than 50% inhibition at 10 μM) | + (“+” indicates greater than 50% inhibition at 10 μM) | + (“+” indicates greater than 50% inhibition at 10 μM) | − (“−” indicates less than 50% inhibition at 10 μM) | − (“−” indicates less than 50% inhibition at 10 μM) | − (“−” indicates less than 50% inhibition at 10 μM) | − (“−” indicates less than 50% inhibition at 10 μM) | − (“−” indicates less than 50% inhibition at 10 μM) |  |  |  |  |  |  |  |  |  |  |
